Measurements published in PMC7450057, “Enhancing intracellular accumulation and target engagement of PROTACs with reversible covalent chemistry” (Nature Communications, 2020).
Several values for one entry are separate records, joined by “and”; a condition that tells them apart may be missing. Equal values may be shown once.

Tests used:
Mino = assay: IC50 in MCL cell lines (Supplementary Table 2), Mino; conditions: Mino; triplicates
Jeko-1 = assay: IC50 in MCL cell lines (Supplementary Table 2), Jeko-1; conditions: for Cell Viability (%): Jeko-1 cells, replicate wells
BTK C481S mutant = conditions: cited from earlier work
Rec-1 = assay: IC50 in MCL cell lines (Supplementary Table 2), Rec-1; conditions: for Cell Viability (%): Rec-1 cells, replicate wells
Maver-1 = assay: IC50 in MCL cell lines (Supplementary Table 2), Maver-1; conditions: Maver-1; triplicates
MOLM-14 cells = assay: AlamarBlue cell viability assay, MOLM-14; conditions: for Cell viability, MOML-14: Supplementary Figure 7, replicates
Experimental: The IC50 was calculated using GraphPad Prism software with a four-parameter dose-response curve fit.

Compound: C=CC(=O)N1CCC[C@@H](n2nc(-c3ccc(Oc4ccccc4)cc3)c3c(N)ncnc32)C1 [IRC-Ctrl, ibrutinib, reference compound]
- IC50 (Mino): 3.8 µM
- IC50 (Jeko-1; Jeko-1, triplicates): 0.3 µM
- Cell Viability (%) (Jeko-1; 1.50E-05 M): 2.151% and 2.02% and 1.9313%
- Cell Viability (%) (Jeko-1; 1.88E-06 M): 2.568% and 2.43% and 2.412%
- Cell Viability (%) (Jeko-1; 3.00E-05 M): 2.333% and 2.338% and 2.111%
- Cell Viability (%) (Jeko-1; 3.75E-06 M): 2.338% and 2.397% and 2.358%
- Cell Viability (%) (Jeko-1; 4.69E-07 M): 5.039% and 20.4969% and 18.3979%
- Cell Viability (%) (Jeko-1; 7.50E-06 M): 2.252% and 2.304% and 1.966%
- Cell Viability (%) (Jeko-1; 9.38E-07 M): 2.5504% and 5.547% and 2.871%
- IC50 (BTK C481S mutant): 0.0046 µM
- IC50 (Rec-1; Rec-1, triplicates): 6.2 µM
- Cell Viability (%) (Rec-1; 1.50E-05 M): 8.535% and 9.796% and 10.5906%
- Cell Viability (%) (Rec-1; 1.88E-06 M): 74.3495% and 75.6404% and 76.9194%
- Cell Viability (%) (Rec-1; 3.00E-05 M): 2.364% and 2.247% and 2.265%
- Cell Viability (%) (Rec-1; 3.75E-06 M): 66.2063%
- Cell Viability (%) (Rec-1; 4.69E-07 M): 84.8624% and 81.0762% and 81.5842%
- Cell Viability (%) (Rec-1; 7.50E-06 M): 44.5947% and 45.7572% and 45.7871%
- Cell Viability (%) (Rec-1; 9.38E-07 M): 81.9548% and 81.1808% and 88.2512%
- IC50 (Maver-1): 5.4 µM
- IC50 (MOLM-14 cells; Homo sapiens, MOLM-14, 72 h, read-out: Cell viability IC50): 0.33 µM
- Cell viability, MOML-14 (MOLM-14 cells; drug concentration 1.00E-05 M): 2.829 and 3.671 and 10.6075 and 4.63 and 7.964
- Cell viability, MOML-14 (MOLM-14 cells; drug concentration 1.60E-08 M): 78.5123 and 71.6258 and 103.431 and 81.3409
- Cell viability, MOML-14 (MOLM-14 cells; drug concentration 2.00E-06 M): 11.3315 and 13.8066 and 22.1242 and 13.453 and 22.4778
- Cell viability, MOML-14 (MOLM-14 cells; drug concentration 3.20E-09 M): 74.4713 and 69.3023 and 89.0692 and 86.5941 and 80.2465
- Cell viability, MOML-14 (MOLM-14 cells; drug concentration 4.00E-07 M): 35.4256 and 44.6356 and 55.26 and 47.599 and 43.2718
- Cell viability, MOML-14 (MOLM-14 cells; drug concentration 6.40E-10 M): 87.7559 and 71.8279 and 83.9002
- Cell viability, MOML-14 (MOLM-14 cells; drug concentration 8.00E-08 M): 71.3059 and 57.3983 and 86.3921 and 79.7919 and 76.879
